Laboratory results reported in patent US10125100B2, “Kinase inhibitors” (Respivert Limited, priority 2014, dated 2018).
Values after ≈ are worked out from the molar mass of the structure shown. Structures can show the parent of a compound that is named as a salt. Each block holds one compound with its values, some of them ahead of it.

Key:
[1] = Solubility in fasted-state simulated colonic fluid (FaSSCoF); format: physicochemical; conditions: for pH 6.5 FaSSCoF Solubility, Run 2 / pH 6.5 FaSSCoF Solubility, Run 1: 24 h; for solubility thermodynamic at 24 h: 25 °C, pH 6.5, fassgf or other biorelevant, thermodynamic from solid
Protocol: The solubilities of compounds of the invention in FaSSCoF at pH 6.5 are determined using a modification of a previously-reported procedure (Vertzoni, M., et al. Pharm. Res. 2010, 27, 2187-2196). In place of the bile salt extract employed in the original procedure (which extract is no longer available), the modified procedure uses a mixture of sodium taurochlorate (0.15 g), glycocholic acid (0.15 g), ursodeoxycholic acid (0.05 g), cholic acid (0.05 g), and glycodeoxycholic acid (0.05 g). These five bile acids are ground together with a mortar and pestle to produce a fine white powder that is incorporated into the FaSSCoF, as outlined below.
Tris(hydroxymethyl)aminomethane (Tris; 0.275 g) and maleic acid (0.44 g) are dissolved in water (35 mL) to give a solution whose pH is adjusted to 6.5 by treatment with 0.5M NaOH (ca. 12 mL). The solution is then made up to 50 mL with water. A portion of this Tris/maleate buffer solution (ca. 25 mL) is added to a 0.5 L round-bottomed flask, before being treated with 0.00565 g of the bile acid mixture described above. Solutions of phosphatidylcholine (0.0111 g) in DCM (0.15 mL) and palmitic acid (0.0013 g) in DCM (0.15 mL) are added, then the organic solvent is evaporated off under reduced pressure at 40° C. until a clear solution, with no perceptible DCM odour, is achieved. The volume of the evaporated solution is adjusted to 50 mL by addition of the remainder of Tris/maleate buffer, then BSA (0.115 g) is added, before being dissolved by gentle agitation.
Test compounds are suspended in the pH 6.5 FaSSCoF medium to give a maximum final concentration of 2-10 mg/mL. The suspensions are equilibrated at 25° C. for 24 h, before being filtered through a glass fibre C filter. The filtrates are then diluted as appropriate for injection and quantification by HPLC with reference to a standard. Different volumes of the standard, diluted and undiluted sample solutions are injected and the solubilities are calculated using the peak areas determined by integration of the peak found at the same retention time as the principal peak in the standard injection.

Jurkat cells = assay: (r) Cell cytotoxicity assay; format: cell-based, human; conditions: 24 hours
How it was run: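 Jurkat cells (1×10^5/well, RPMI + 10% FBS) exposed to compound at 20, 5 or 1 μg/mL final (1.0% DMSO control) for 24 h at 37° C., 5% CO2. Then stained with 7.5 μg/mL propidium iodide for 15 min. % viability = PI-negative cells by flow cytometry, normalized to DMSO.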

[2] = Stability of pharmaceutical formulations; format: physicochemical; conditions: for Original Purity: 1 mg/mL solution, before storage; for Purity at week n = 1: 1 week; for Purity at week n = 2: 2 weeks; for Purity at week n = 4: 4 weeks
Protocol: The samples were sonicated to achieve clear solutions having the following properties: Osmolality (mOsm/kg): 310 (Na), 314 (HCl); pH: 7.00 (Na), 7.05 (HCl). 0.5 mL of the stock solutions were diluted to 1 mL with 20% DMSO in water & injected for purity analysis by HPLC. The remaining stock solutions were then split into aliquots of 0.5 mL in HPLC vials, and stored at various conditions in duplicate. Samples were stored at 5 and 25° C., before being analysed by HPLC at 1, 2 and 4 weeks. Separate samples were stored at 40° C. and analysed at 4 weeks.

SMILES: COc1cc(Nc2cc(Oc3ccc(NC(=O)Nc4cc(C(C)(C)C)cc(NS(C)(=O)=O)c4OC)c4ccccc34)ccn2)ccc1C(=O)O [1 (sodium salt), 4-((4-((4-(3-(5-(tert-Butyl)-2-methoxy-3-(methylsulfonamido)phenyl)ureido)naphthalen-1-yl)oxy)pyridin-2-yl)amino)-2-methoxybenzoic acid]
pH 6.5 FaSSCoF Solubility, Run 2 [1]: 0.032 mg/mL

pH 6.5 FaSSCoF Solubility, Run 2 [1]: 0.028 mg/mL
SMILES: COc1cc(Nc2cc(Oc3ccc(NC(=O)Nc4cc(C(C)(C)C)cc(NS(C)(=O)=O)c4OC)c4ccccc34)ccn2)ccc1C(=O)NCCC(=O)O [17(ay) (hydrochloride salt), 3-(4-((4-((4-(3-(5-(tert-Butyl)-2-methoxy-3-(methylsulfonamido)phenyl)ureido)-naphthalen-1-yl)oxy)pyridin-2-yl)amino)-2-methoxybenzamido)propanoic acid]

pH 6.5 FaSSCoF Solubility, Run 2 [1]: 0.024 mg/mL
SMILES: COc1cc(Nc2cc(Oc3ccc(NC(=O)Nc4cc(C(C)(C)C)cc(NS(C)(=O)=O)c4OC)c4ccccc34)ccn2)cc(OC)c1C(=O)NCCN1CCN(CCO)CC1 [Example 37, 4-((4-((4-(3-(5-(tert-Butyl)-2-methoxy-3-(methylsulfonamido)phenyl)ureido)naphthalen-1-yl)oxy)pyridin-2-yl)amino)-N-(2-(4-(2-hydroxyethyl)piperazin-1-yl)ethyl)-2,6-dimethoxybenzamide]
% Viability at 1 μg/mL (Jurkat cells): 52.9% | % Viability at 5 μg/mL (Jurkat cells): 55.8% | % Viability at 20 μg/mL (Jurkat cells): 28.9%

solubility thermodynamic at 24 h [1]: > 4700 µg/mL | pH 6.5 FaSSCoF Solubility, Run 2 [1]: >4.7 mg/mL
SMILES: COc1cc(Nc2cc(Oc3ccc(NC(=O)Nc4cc(C(C)(C)C)cc(NS(C)(=O)=O)c4OC)c4ccccc34)ccn2)ccc1C(=O)NCCOCCOCCOP(=O)(O)O [19 (sodium salt), 2-(2-(2-(4-((4-((4-(3-(5-(tert-Butyl)-2-methoxy-3-(methylsulfonamido)phenyl)ureido)-naphthalen-1-yl)oxy)pyridin-2-yl)amino)-2-methoxybenzamido)ethoxy)ethoxy)ethyl dihydrogen phosphate]

pH 6.5 FaSSCoF Solubility, Run 2 [1]: 0.049 mg/mL
SMILES: COc1cc(Nc2cc(Oc3ccc(NC(=O)Nc4cc(C(C)(C)C)cc(NS(C)(=O)=O)c4OC)c4ccccc34)ccn2)ccc1C(=O)NCCNC(=O)CCC(=O)O [17(cd) (hydrochloride salt), 4-((2-(4-((4-((4-(3-(5-(tert-Butyl)-2-methoxy-3-(methylsulfonamido)phenyl)ureido)-naphthalen-1-yl)oxy)pyridin-2-yl)amino)-2-methoxybenzamido)ethyl)amino)-4-oxobutanoic acid]

pH 6.5 FaSSCoF Solubility, Run 2 [1]: 0.024 mg/mL
SMILES: COc1cc(Nc2cc(Oc3ccc(NC(=O)Nc4cc(NS(C)(=O)=O)cc(C(C)(C)C)c4)c4ccccc34)ccn2)ccc1C(=O)NCCCN1CCN(C)CC1 [17(bp), 4-((4-((4-(3-(3-(tert-Butyl)-5-(methylsulfonamido)phenyl)ureido)naphthalen-1-yl)oxy)pyridin-2-yl)amino)-2-methoxy-N-(3-(4-methylpiperazin-1-yl)propyl)benzamide]
% Viability at 1 μg/mL (Jurkat cells): 93.2% | % Viability at 5 μg/mL (Jurkat cells): 41.0% | % Viability at 20 μg/mL (Jurkat cells): 2.0%

pH 6.5 FaSSCoF Solubility, Run 2 [1]: 0.198 mg/mL
SMILES: COc1cc(Nc2cc(Oc3ccc(NC(=O)Nc4cc(C(C)(C)C)cc(NS(C)(=O)=O)c4OC)c4ccccc34)ccn2)ccc1C(=O)NCC(=O)O [17(ar) (hydrochloride salt), 2-(4-((4-((4-(3-(5-(tert-Butyl)-2-methoxy-3-(methylsulfonamido)phenyl)ureido)naphthalen-1-yl)oxy)pyridin-2-yl)amino)-2-methoxybenzamido)acetic acid]

pH 6.5 FaSSCoF Solubility, Run 2 [1]: 0.049 mg/mL
SMILES: COc1cc(Nc2nccc(Oc3ccc(NC(=O)Nc4cc(C(C)(C)C)cc(NS(C)(=O)=O)c4OC)c4ccccc34)n2)ccc1C(=O)NCCC1CCN(C)CC1 [17(an), 4-((4-((4-(3-(5-(tert-butyl)-2-methoxy-3-(methylsulfonamido)phenyl)ureido)naphthalen-1-yl)oxy)pyrimidin-2-yl)amino)-2-methoxy-N-(2-(1-methylpiperidin-4-yl)ethyl)benzamide]
% Viability at 1 μg/mL (Jurkat cells): 97.9% | % Viability at 5 μg/mL (Jurkat cells): 37.9% | % Viability at 20 μg/mL (Jurkat cells): 1.1%

solubility thermodynamic at 24 h [1]: 6 µg/mL (≈ 7.1 µM) | pH 6.5 FaSSCoF Solubility, Run 2 [1]: 0.006 mg/mL
SMILES: COc1cc(Nc2cc(Oc3ccc(NC(=O)Nc4cc(C(C)(C)C)cc(NS(C)(=O)=O)c4OC)c4ccccc34)ccn2)ccc1C(=O)N1C[C@H](O)[C@@H](O)[C@H](O)[C@H]1CO [17(ci), N-(5-(tert-Butyl)-2-methoxy-3-(3-(4-((2-((3-methoxy-4-((2R,3R,4R,5S)-3,4,5-trihydroxy-2-(hydroxymethyl)piperidine-1-carbonyl)phenyl)amino)pyridin-4-yl)oxy)naphthalen-1-yl)ureido)phenyl)methanesulfonamide]

SMILES: COc1cc(Nc2cc(Oc3ccc(NC(=O)Nc4cc(C(C)(C)C)cc(NS(C)(=O)=O)c4OC)c4ccccc34)ccn2)ccc1P(C)(=O)O [44 (sodium salt), (4-((4-((4-(3-(5-(tert-Butyl)-2-methoxy-3-(methylsulfonamido)phenyl)ureido)naphthalen-1-yl)oxy)pyridin-2-yl)amino)-2-methoxyphenyl)(methyl)phosphinic acid]
pH 6.5 FaSSCoF Solubility, Run 1 [1]: >7.6 mg/mL | pH 6.5 FaSSCoF Solubility, Run 2 [1]: >5.5 mg/mL

SMILES: COc1cc(Nc2cc(Oc3ccc(NC(=O)Nc4cc(C(C)(C)C)cc(NS(C)(=O)=O)c4OC)c4ccccc34)ccn2)ccc1P(C)(=O)O [44 (ammonium salt), (4-((4-((4-(3-(5-(tert-Butyl)-2-methoxy-3-(methylsulfonamido)phenyl)ureido)naphthalen-1-yl)oxy)pyridin-2-yl)amino)-2-methoxyphenyl)(methyl)phosphinic acid]
pH 6.5 FaSSCoF Solubility, Run 1 [1]: >2.4 mg/mL | pH 6.5 FaSSCoF Solubility, Run 2 [1]: >2.4 mg/mL

SMILES: COc1cc(Nc2cc(Oc3ccc(NC(=O)Nc4cc(C(C)(C)C)cc(NS(C)(=O)=O)c4OC)c4ccccc34)ccn2)ccc1C(=O)O.Cl [Example 1, hydrochloride salt]
Original Purity ([2]; Sample 1): 98.1% | Purity at week n = 1 ([2]; Sample 1, 5° C.): 98.2% | Purity at week n = 2 ([2]; Sample 1, 5° C.): 98.1% | Purity at week n = 4 ([2]; Sample 1, 5° C.): 97.9% | Purity at week n = 1 ([2]; Sample 1, 25° C.): 98.0% | Purity at week n = 2 ([2]; Sample 1, 25° C.): 97.7% | Purity at week n = 4 ([2]; Sample 1, 25° C.): 97.2% | Purity at week n = 4 ([2]; Sample 1, 40° C.): 79.2% | Original Purity ([2]; Sample 2): 98.1% | Purity at week n = 1 ([2]; Sample 2, 5° C.): 98.2% | Purity at week n = 2 ([2]; Sample 2, 5° C.): 98.0% | Purity at week n = 4 ([2]; Sample 2, 5° C.): 98.0% | Purity at week n = 1 ([2]; Sample 2, 25° C.): 98.0% | Purity at week n = 2 ([2]; Sample 2, 25° C.): 97.6% | Purity at week n = 4 ([2]; Sample 2, 25° C.): 97.4% | Purity at week n = 4 ([2]; Sample 2, 40° C.): 80.4%
